Experimental data from patent US20240043661A1, “CYCLODEXTRIN DIMERS AND USES THEREOF” (UNDERDOG PHARMACEUTICALS, INC., priority 2020, published 2024).

Assays:
[1] = In vitro solubility assay (turbidity assay) with 7KC; format: physicochemical; conditions: 300 μM sterol, 3% ethanol in PBS, 30 mins at 37C, absorbance at 350 nm
Protocol: (§1) Greater affinity for one compound than another, e.g., greater affinity for 7KC than cholesterol, may be determined using a “turbidity test” performed on an aqueous suspension containing 3% ethanol, 300 uM sterol, in PBS and 1 mM of the CD to be tested. This single concentration of CD is used in order to standardize the test results. To perform the test, the samples are incubated for 30 mins at 37C, and then absorbance at 350 nm is measured, e.g., using a spectrophotometer plate reader. Relative turbidity is determined by dividing the measured turbidity in the presence of the CD to the baseline turbidity without the CD. A given CD has greater affinity for 7KC than cholesterol if the relative turbidity of the 7KC suspension is lower than the relative turbidity of the cholesterol solution.
(§2) Sterol stock solutions (including cholesterol and 7KC) were suspended in 100% ethanol. Final concentration of suspensions: 3% ethanol, 300 μM sterol, in PBS with various concentrations of CDs.

[2] = In vitro solubility assay (turbidity assay) with cholesterol; format: physicochemical; conditions: 300 μM sterol, 3% ethanol in PBS, 30 mins at 37C, absorbance at 350 nm
Protocol: as §1, §2

Structure (SMILES): OC[C@H]1O[C@@H]2O[C@H]3[C@H](O)[C@@H](O)[C@@H](O[C@H]4[C@H](O)[C@@H](O)[C@@H](O[C@H]5[C@H](O)[C@@H](O)[C@@H](O[C@H]6[C@H](O)[C@@H](O)[C@@H](O[C@H]7[C@H](O)[C@@H](O)[C@@H](O[C@H]1[C@H](O)[C@H]2O)O[C@@H]7CO)O[C@@H]6CO)O[C@@H]5CO)O[C@@H]4CO)O[C@@H]3CO [native αCD]
- solubilization / binding of 7KC (turbidity) [1]: low affinity for 7KC and cholesterol
- specificity for 7KC over cholesterol (turbidity) [1]: no specificity
- solubilization / binding of cholesterol (turbidity) [2]: low affinity for 7KC and cholesterol
